# Assay results published in patent US10765114B2, “4-amino-6-(pyridyl and 2-substitutedphenyl)-picolinates and 6-amino-2-(pyridyl and 2-substitutedphenyl)-pyrimidine-4-carboxylates and their use as herbicides” (Dow AgroSciences LLC, priority 2013, dated 2020).
# Read-outs that look alike come from different tables or passages of the source.
# Legend:
# [1] = tested on: Key Broadleaf Weed and Crop Species; assay: Post-Emergent Test II (Table 5); assay type: in vivo; details: post-emergence, 336 h; for pest or weed control at 70 g/ha: application rate 70 (kg ai/ha; footnote: g ai/ha); for pest or weed control at 140 g/ha: application rate 140 (kg ai/ha; footnote: g ai/ha)
# In short: (§1)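 Plants grown in a greenhouse (~15 h photoperiod, 23-29° C day) to first or second true leaf stage were sprayed post-emergence at 187 L/ha with compound in acetone/DMSO-based aqueous spray containing crop oil concentrate and surfactant, applied at a high rate plus ½× to 1/16× serial rates. Injury was scored visually 14 days later, 0-100% versus untreated plants.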
# [2] = tested on: Key Grass and Sedge Weeds as well as Grass Crops; assay: Post-Emergent Test II (Table 6); assay type: in vivo; details: for Visual Growth Reduction (%) 14 Days After Application, CYPSS: CYPSS (CYPES: yellow nutsedge, Cyperus esculentus); for Visual Growth Reduction (%) 14 Days After Application, CYPSS / Visual Growth Reduction (%) 14 Days After Application, DIGSA / Visual Growth Reduction (%) 14 Days After Application, ECHSS / Visual Growth Reduction (%) 14 Days After Application, ORYSS / Visual Growth Reduction (%) 14 Days After Application, SETFA / Visual Growth Reduction (%) 14 Days After Application, SORVU / Visual Growth Reduction (%) 14 Days After Application, TRZSS / Visual Growth Reduction (%) 14 Days After Application, ZEAMX: given as numbers; for Visual Growth Reduction (%) 14 Days After Application, ECHSS: ECHSS (ECHCG: barnyardgrass, Echinochloa crus-galli); for Visual Growth Reduction (%) 14 Days After Application, ORYSS: ORYSS (ORYSA: rice, Oryza sativa); for Visual Growth Reduction (%) 14 Days After Application, ORYSS / Visual Growth Reduction (%) 14 Days After Application, TRZSS / Visual Growth Reduction (%) 14 Days After Application, ZEAMX: crop; for Visual Growth Reduction (%) 14 Days After Application, SORVU: SORVU: johnsongrass (Sorghum vulgare); for Visual Growth Reduction (%) 14 Days After Application, TRZSS: TRZSS (TRZAS: wheat, spring, Triticum aestivum); for pest or weed control at 70 g/ha / pest or weed control at 140 g/ha: post-emergence, 336 h, 14 days after application
# In short: as §1
# [3] = Abutilon theophrasti, ABUTH: velvetleaf (Abutilon theophrasti), given as numbers, read-out: Visual Growth Reduction (%) 14 Days After Application ABUTH
# [4] = Amaranthus retroflexus, AMARE: redroot pigweed (Amaranthus retroflexus), given as numbers, read-out: Visual Growth Reduction (%) 14 Days After Application AMARE
# [5] = Brassica napus, BRSSS: oilseed rape, canola (Brassica napus), given as numbers, read-out: Visual Growth Reduction (%) 14 Days After Application BRSSS
# [6] = Chenopodium album, CHEAL: lambsquarters (Chenopodium album), given as numbers, read-out: Visual Growth Reduction (%) 14 Days After Application CHEAL
# [7] = Euphorbia heterophylla, EPHHL: wild poinsettia (Euphorbia heterophylla), given as numbers, read-out: Visual Growth Reduction (%) 14 Days After Application EPHHL
# [8] = Helianthus annuus, HELAN: sunflower (Helianthus annuus), given as numbers, read-out: Visual Growth Reduction (%) 14 Days After Application HELAN
# [9] = Viola tricolor, VIOTR: wild pansy (Viola tricolor), given as numbers, read-out: Visual Growth Reduction (%) 14 Days After Application VIOTR
# [10] = Euphorbia heterophylla, EPHHL: wild poinsettia (Euphorbia heterophylla), read-out: Visual Growth Reduction (%) 14 Days After Application EPHHL
# [11] = Viola tricolor, VIOTR: wild pansy (Viola tricolor), read-out: Visual Growth Reduction (%) 14 Days After Application VIOTR
smiles,measurement,setting,value
CCc1c(-c2cc(N)c(Cl)c(C(=O)OC)n2)ccc(Cl)c1F [Compound 21],melting point,,140 to 143 °C
"COC(=O)c1nc(-c2ccc(C(F)F)nc2)c(F)c(N)c1Cl [Compound 34, methyl 4-amino-5-chloro-6′-(difluoromethyl)-3-fluoro-2,3′-bipyridine-6-carboxylate]",melting point,,144 to 146 °C
C=Cc1c(N)nc(-c2ccc(C(F)(F)F)nc2)nc1C(=O)O [Compound 102],pest or weed control at 70 g/ha,[1]; [3],15%
same,pest or weed control at 140 g/ha,[1]; [3],15%
same,pest or weed control at 70 g/ha,[1]; [4],85%
same,pest or weed control at 140 g/ha,[1]; [4],100%
same,pest or weed control at 70 g/ha,[1]; [5],20%
same,pest or weed control at 140 g/ha,[1]; [5],35%
same,pest or weed control at 70 g/ha,[1]; [6],80%
same,pest or weed control at 140 g/ha,[1]; [6],75%
same,pest or weed control at 70 g/ha,[1]; [7],85%
same,pest or weed control at 140 g/ha,[1]; [7],100%
same,pest or weed control at 70 g/ha,[1]; [8],65%
same,pest or weed control at 140 g/ha,[1]; [8],75%
same,pest or weed control at 70 g/ha,[1]; [9],35%
same,pest or weed control at 140 g/ha,[1]; [9],80%
same,"Visual Growth Reduction (%) 14 Days After Application, CYPSS",[2]; 70 g ai/ha,10%
same,"Visual Growth Reduction (%) 14 Days After Application, CYPSS",[2]; 140 g ai/ha,35%
same,"Visual Growth Reduction (%) 14 Days After Application, DIGSA","[2]; DIGSA: crabgrass (Digitaria sanguinalis), 70 g ai/ha",0%
same,"Visual Growth Reduction (%) 14 Days After Application, DIGSA","[2]; DIGSA: crabgrass (Digitaria sanguinalis), 140 g ai/ha",0%
same,"Visual Growth Reduction (%) 14 Days After Application, ECHSS",[2]; 70 g ai/ha,30%
same,"Visual Growth Reduction (%) 14 Days After Application, ECHSS",[2]; 140 g ai/ha,70%
same,"Visual Growth Reduction (%) 14 Days After Application, ORYSS",[2]; 70 g ai/ha,0%
same,"Visual Growth Reduction (%) 14 Days After Application, ORYSS",[2]; 140 g ai/ha,0%
same,"Visual Growth Reduction (%) 14 Days After Application, SETFA","[2]; SETFA: giant foxtail (Setaria faberi), 70 g ai/ha",0%
same,"Visual Growth Reduction (%) 14 Days After Application, SETFA","[2]; SETFA: giant foxtail (Setaria faberi), 140 g ai/ha",0%
same,"Visual Growth Reduction (%) 14 Days After Application, SORVU",[2]; 70 g ai/ha,0%
same,"Visual Growth Reduction (%) 14 Days After Application, SORVU",[2]; 140 g ai/ha,0%
same,"Visual Growth Reduction (%) 14 Days After Application, TRZSS",[2]; 70 g ai/ha,0%
same,"Visual Growth Reduction (%) 14 Days After Application, TRZSS",[2]; 140 g ai/ha,10%
same,"Visual Growth Reduction (%) 14 Days After Application, ZEAMX","[2]; ZEAMX: maize, corn (Zea mays), 70 g ai/ha",0%
same,"Visual Growth Reduction (%) 14 Days After Application, ZEAMX","[2]; ZEAMX: maize, corn (Zea mays), 140 g ai/ha",0%
"COC(=O)c1nc(-c2ccc(C(F)(F)F)nc2)nc(N)c1Cl [Compound 82, methyl 6-amino-5-chloro-2-(6-(trifluoromethyl)pyridin-3-yl)pyrimidine-4-carboxylate]",pest or weed control at 70 g/ha,[1]; [10],0 to 29%
same,pest or weed control at 140 g/ha,[1]; [10],0 to 29%
same,pest or weed control at 70 g/ha,[1]; [11],0 to 29%
same,pest or weed control at 140 g/ha,[1]; [11],0 to 29%
same,pest or weed control at 70 g/ha,"[2]; CYPSS, 70 g ai/ha, read-out: Visual Growth Reduction (%) 14 Days After Application CYPSS",0 to 29%
same,pest or weed control at 140 g/ha,"[2]; CYPSS, 140 g ai/ha, read-out: Visual Growth Reduction (%) 14 Days After Application CYPSS",0 to 29%
same,pest or weed control at 70 g/ha,"[2]; DIGSA: crabgrass (Digitaria sanguinalis), 70 g ai/ha, read-out: Visual Growth Reduction (%) 14 Days After Application DIGSA",0 to 29%
same,pest or weed control at 140 g/ha,"[2]; DIGSA: crabgrass (Digitaria sanguinalis), 140 g ai/ha, read-out: Visual Growth Reduction (%) 14 Days After Application DIGSA",0 to 29%
same,pest or weed control at 70 g/ha,"[2]; ECHSS, 70 g ai/ha, read-out: Visual Growth Reduction (%) 14 Days After Application ECHSS",0 to 29%
same,pest or weed control at 140 g/ha,"[2]; ECHSS, 140 g ai/ha, read-out: Visual Growth Reduction (%) 14 Days After Application ECHSS",0 to 29%
same,pest or weed control at 70 g/ha,"[2]; ORYSS (crop), 70 g ai/ha, read-out: Visual Growth Reduction (%) 14 Days After Application ORYSS",0 to 29%
same,pest or weed control at 140 g/ha,"[2]; ORYSS (crop), 140 g ai/ha, read-out: Visual Growth Reduction (%) 14 Days After Application ORYSS",0 to 29%
same,pest or weed control at 70 g/ha,"[2]; SETFA: giant foxtail (Setaria faberi), 70 g ai/ha, read-out: Visual Growth Reduction (%) 14 Days After Application SETFA",0 to 29%
same,pest or weed control at 140 g/ha,"[2]; SETFA: giant foxtail (Setaria faberi), 140 g ai/ha, read-out: Visual Growth Reduction (%) 14 Days After Application SETFA",0 to 29%
same,pest or weed control at 70 g/ha,"[2]; SORVU: grain sorghum (Sorghum vulgare), 70 g ai/ha, read-out: Visual Growth Reduction (%) 14 Days After Application SORVU",0 to 29%
same,pest or weed control at 140 g/ha,"[2]; SORVU: grain sorghum (Sorghum vulgare), 140 g ai/ha, read-out: Visual Growth Reduction (%) 14 Days After Application SORVU",0 to 29%
same,pest or weed control at 70 g/ha,"[2]; TRZSS (crop), 70 g ai/ha, read-out: Visual Growth Reduction (%) 14 Days After Application TRZSS",0 to 29%
same,pest or weed control at 140 g/ha,"[2]; TRZSS (crop), 140 g ai/ha, read-out: Visual Growth Reduction (%) 14 Days After Application TRZSS",0 to 29%
same,pest or weed control at 70 g/ha,"[2]; ZEAMX: maize, corn (Zea mays), 70 g ai/ha, read-out: Visual Growth Reduction (%) 14 Days After Application ZEAMX",0 to 29%
same,pest or weed control at 140 g/ha,"[2]; ZEAMX: maize, corn (Zea mays), 140 g ai/ha, read-out: Visual Growth Reduction (%) 14 Days After Application ZEAMX",0 to 29%
same,melting point,,179 to 181 °C
